According to PubChem BioAssay AID651732 (NMMLSC, 2012):
The source made the active and inactive calls.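 The calls were made as follows: active = cytotoxic compounds whose viability ratio versus DMSO control falls below 0.85 at 10 µM; inactive = the rest.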

Tested on: U937 viability, trypan blue exclusion, 24 h
Test: U937 cell cytotoxicity, late-stage follow-up, cytotoxicity control for Cdc42 probe extension project, trypan blue exclusion (AID 651732)
Settings: at 30 µM (top of the series)

COc1ccc(C2CC(c3ccccc3)=NN2c2ccc(S(N)(=O)=O)cc2)cc1 (stereo unspecified)
viability ratio to DMSO: 0.19 (inactive)
